This note sets out measurements from patent US10780090B2, “Heteroaryl compounds useful as inhibitors of SUMO activating enzyme” (Millennium Pharmaceuticals, Inc., priority 2014, dated 2020).

For this assay, the target named is recombinant human SAE enzyme (Homo sapiens (Human), UniProt Q9UBT2). As to the kind of experiment: SAE HTRF enzyme assay. Format: biochemical. To be noted: for inhibition at 0.111 µM: read-out: Percent Inhibition. The method, boiled down: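 This HTRF format monitors Sumo-Flag–Ubc9-GST thioester formation catalysed by 0.11 nM human SAE with 0.5 μM ATP over 105 min at 24° C. Inhibition is expressed at a single concentration or as IC50.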
For orientation: TR-FRET usually uses a lanthanide donor and a delayed reading to cut background.

Where [1] appears, read: SAE inhibition at compound concentration 0.111 μM.
The mark [2] stands for this setting: SAE inhibition, class symbols, legend in nM.

Molecules are shown by their SMILES.

Sequence of recombinant human SAE enzyme (Q9UBT2 whole entry): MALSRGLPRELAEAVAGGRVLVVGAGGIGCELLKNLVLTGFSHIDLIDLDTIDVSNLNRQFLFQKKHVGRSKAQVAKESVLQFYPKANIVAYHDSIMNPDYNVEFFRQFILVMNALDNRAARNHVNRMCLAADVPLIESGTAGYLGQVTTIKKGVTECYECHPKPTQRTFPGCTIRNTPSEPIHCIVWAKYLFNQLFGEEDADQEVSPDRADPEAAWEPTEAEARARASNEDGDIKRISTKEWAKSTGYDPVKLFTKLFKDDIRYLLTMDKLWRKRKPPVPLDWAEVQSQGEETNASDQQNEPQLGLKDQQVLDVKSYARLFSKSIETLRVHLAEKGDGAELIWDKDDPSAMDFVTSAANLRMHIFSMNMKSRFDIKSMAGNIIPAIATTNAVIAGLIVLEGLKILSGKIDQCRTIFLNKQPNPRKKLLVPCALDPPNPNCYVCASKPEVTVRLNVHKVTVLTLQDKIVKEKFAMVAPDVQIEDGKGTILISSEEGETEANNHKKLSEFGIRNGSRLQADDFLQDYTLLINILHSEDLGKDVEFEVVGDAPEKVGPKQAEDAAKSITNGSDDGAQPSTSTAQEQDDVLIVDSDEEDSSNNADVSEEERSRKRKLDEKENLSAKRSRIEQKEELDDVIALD
Sequence of recombinant human SAE enzyme (Q9UBE0 whole entry partner): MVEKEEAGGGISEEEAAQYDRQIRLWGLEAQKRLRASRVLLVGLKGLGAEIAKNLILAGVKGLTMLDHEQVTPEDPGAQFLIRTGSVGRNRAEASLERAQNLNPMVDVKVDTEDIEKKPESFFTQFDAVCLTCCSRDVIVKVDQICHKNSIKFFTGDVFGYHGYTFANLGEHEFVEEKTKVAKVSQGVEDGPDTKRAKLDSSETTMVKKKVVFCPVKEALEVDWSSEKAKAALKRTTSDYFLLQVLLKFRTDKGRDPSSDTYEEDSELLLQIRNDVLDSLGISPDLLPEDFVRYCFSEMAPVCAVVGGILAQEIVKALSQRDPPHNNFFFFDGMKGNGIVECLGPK

As for `Cc1sc(C(=O)c2cncnc2N[C@@H]2C[C@H](COS(N)(=O)=O)[C@@H](O)[C@@H]2F)cc1[C@@H]1OCCc2ccccc21` (single isomer, unassigned) [I-271a, [(1R,2R,3R,4R)-4-{([5-({4-[(1R)-3,4-dihydro-1H-isochromen-1-yl]-5-methyl-2-thienyl)carbonyl)pyrimidin-4-yl]amino}-3-fluoro-2-hydroxycyclopentyl]methyl sulfamate or [(1R,2R,3R,4R)-4-{([5-({4-[(1S)-3,4-dihydro-1H-isochromen-l-yl]-5-methyl-2-thienyl}carbonyl)pyrimidin-4-yl]amino}-3-fluoro-2-hydroxycyclopentyl]methyl sulfamate], the “Percent Inhibition” value (Concentration 0.111 μM) is reported as 99. The IC50 (usually the concentration that gives 50% inhibition) (class symbols A/B/C) is < 10 nM.
Turning to `Cc1sc(C(=O)c2cncnc2N[C@@H]2C[C@H](COS(N)(=O)=O)[C@@H](O)C2)cc1[C@@H]1OCCc2sccc21` (mixture of isomers) [I-275, [(1R,2S,4R)-4-{[5-({4-[(4S)-6,7-dihydro-4H-thieno[3,2-c]pyran-4-yl]-5-methyl-2-thienyl}carbonyl)pyrimidin-4-yl]amino}-2-hydroxycyclopentyl]methyl sulfamate and [(1R,2S,4R)-4-{[5-({4-[(4R)-6,7-dihydro-4H-thieno[3,2-c]pyran-4-yl]-5-methyl-2-thienyl}carbonyl)pyrimidin-4-yl]amino}-2-hydroxycyclopentyl]methyl sulfamate], the “Percent Inhibition” value (Concentration 0.111 μM) amounted to 97. Under “class symbols A/B/C”, the IC50 was < 10 nM.
On to `Cc1sc(C(=O)c2cncnc2N[C@@H]2C[C@H](COS(N)(=O)=O)[C@@H](O)C2)cc1CN1CCc2cccnc21` [I-171, {(1R,2S,4R)-4-[(5-{[4-(2,3-dihydro-1H-pyrrolo[2,3-b]pyridin-1-ylmethyl)-5-methyl-2-thienyl]carbonyl}pyrimidin-4-yl)amino]-2-hydroxycyclopentyl}methyl sulfamate], for which the inhibition (as a rule, the change of the read-out against control, counted positive when it falls) at 0.111 µM (Concentration 0.111 μM) turned out to be 90%. Further, the IC50 (class symbols A/B/C) lay within 10 to 100 nM.
Turning to `Cc1sc(C(=O)c2cncnc2N[C@@H]2C[C@H](COS(N)(=O)=O)[C@@H](O)C2)cc1[C@@H]1NCCc2ccc(Cl)cc21` [I-263a, [(1R,2S,4R)-4-[[5-[4-[(1R)-7-chloro-1,2,3,4-tetrahydroisoquinolin-1-yl]-5-methyl-thiophene-2-carbonyl]pyrimidin-4-yl]amino]-2-hydroxy-cyclopentyl]methyl sulfamate], the inhibition at 0.111 µM (Concentration 0.111 μM) is 101%. Moreover, where the note is “class symbols A/B/C”, the IC50 was < 10 nM.
As to `NS(=O)(=O)OC[C@H]1C[C@@H](Nc2ncncc2C(=O)c2cc([C@@H](O)c3cccc(Cl)c3)co2)C[C@@H]1O.NS(=O)(=O)OC[C@H]1C[C@@H](Nc2ncncc2C(=O)c2cc([C@H](O)c3cccc(Cl)c3)co2)C[C@@H]1O` (mixture of isomers) [I-42, {(1R,2S,4R)-4-[(5-{4-[(R)-(3-chlorophenyl)(hydroxy)methyl]-2-furoyl}pyrimidin-4-yl)amino]-2-hydroxycyclopentyl}methyl sulfamate and {(1R,2S,4R)-4-[(5-{4-[(S)-(3-chlorophenyl)(hydroxy)methyl]-2-furoyl}pyrimidin-4-yl)amino]-2-hydroxycyclopentyl}methyl sulfamate], the “Percent Inhibition” value (Concentration 0.111 μM) is recorded as 98. Also, the 50% inhibitory concentration (IC50) (class symbols A/B/C) is < 10 nM.
`NS(=O)(=O)OC[C@H]1C[C@@H](Nc2ncncc2C(=O)c2ccc(-c3ccccc3Cl)o2)[C@H](O)[C@@H]1O` [I-158, [(1R,2R,3S,4R)-4-({5-[5-(2-chlorophenyl)-2-furoyl]pyrimidin-4-yl}amino)-2,3-dihydroxycyclopentyl]methyl sulfamate]: the inhibition at 0.111 µM (Concentration 0.111 μM) was determined as 86%.
Consider `NS(=O)(=O)OC[C@H]1C[C@@H](Nc2ncncc2C(=O)c2cc([C@@H]3NCCc4ccc(Cl)cc43)cs2)C[C@@H]1O` (mixture of isomers) [I-274, [(1R,2S,4R)-4-{[5-({4-[(1R)-7-chloro-1,2,3,4-tetrahydroisoquinolin-1-yl]-2-thienyl}carbonyl)pyrimidin-4-yl]amino}-2-hydroxycyclopentyl]methyl sulfamate and [(1R,2S,4R)-4-{[5-({4-[(1S)-7-chloro-1,2,3,4-tetrahydroisoquinolin-1-yl]-2-thienyl}carbonyl)pyrimidin-4-yl]amino}-2-hydroxycyclopentyl]methyl sulfamate], for which the “Percent Inhibition” value (Concentration 0.111 μM) is reported as 100. Besides, the 50% inhibitory concentration (IC50) (class symbols A/B/C) is < 10 nM.
Turning to `Cc1sc(C(=O)c2cncnc2N[C@@H]2C[C@H](COS(N)(=O)=O)[C@@H](O)C2)cc1[C@H]1OCC(F)(F)c2ccc(Cl)nc21` (single isomer, unassigned) [I-260a, [(1R,2S,4R)-4-{[5-({4-[(8R)-2-chloro-5,5-difluoro-5,8-dihydro-6H-pyrano[3,4-b]pyridin-8-yl]-5-methyl-2-thienyl}carbonyl)pyrimidin-4-yl]amino}-2-hydroxycyclopentyl]methyl sulfamate or [(1R,2S,4R)-4-{[5-({4-[(8S)-2-chloro-5,5-difluoro-5,8-dihydro-6H-pyrano[3,4-b]pyridin-8-yl]-5-methyl-2-thienyl}carbonyl)pyrimidin-4-yl]amino}-2-hydroxycyclopentyl]methyl sulfamate], the “Percent Inhibition” value (Concentration 0.111 μM) turned out to be 99. In addition, the IC50 (class symbols A/B/C) is < 10 nM.
As for `Cc1sc(C(=O)c2cncnc2N[C@@H]2C[C@H](COS(N)(=O)=O)[C@@H](O)C2)cc1[C@@H]1OCCc2ccc(C(F)(F)F)nc21.Cc1sc(C(=O)c2cncnc2N[C@@H]2C[C@H](COS(N)(=O)=O)[C@@H](O)C2)cc1[C@H]1OCCc2ccc(C(F)(F)F)nc21` (mixture of isomers) [I-297, [(1R,2S,4R)-2-hydroxy-4-{[5-({5-methyl-4-[(8S)-2-(trifluoromethyl)-5,8-dihydro-6H-pyrano[3,4-b]pyridin-8-yl]-2-thienyl}carbonyl)pyrimidin-4-yl]amino}cyclopentyl]methyl sulfamate and [(1R,2S,4R)-2-hydroxy-4-{[5-({5-methyl-4-[(8R)-2-(trifluoromethyl)-5,8-dihydro-6H-pyrano[3,4-b]pyridin-8-yl]-2-thienyl}carbonyl)pyrimidin-4-yl]amino}cyclopentyl]methyl sulfamate], the “Percent Inhibition” value under setting [1] is recorded as 96%. Further, under setting [2], the IC50 is < 10 nM.
Consider `N#Cc1sc(C(=O)c2cncnc2N[C@@H]2C[C@H](COS(N)(=O)=O)[C@@H](O)C2)cc1[C@@H]1OCCc2ccccc21` (mixture of isomers) [I-324, [(1R,2S,4R)-4-{[5-({5-cyano-4-[(1R)-3,4-dihydro-1H-isochromen-1-yl]-2-thienyl}carbonyl)pyrimidin-4-yl]amino}-2-hydroxycyclopentyl]methyl sulfamate and [(1R,2S,4R)-4-{[5-({5-cyano-4-[(1S)-3,4-dihydro-1H-isochromen-1-yl]-2-thienyl}carbonyl)pyrimidin-4-yl]amino}-2-hydroxycyclopentyl]methyl sulfamate], for which, under setting [1], the “Percent Inhibition” value turned out to be 91%. Further, under setting [2], the IC50 fell in the range of 10 to 100 nM.
As for `NS(=O)(=O)OC[C@H]1C[C@@H](Nc2ncncc2C(=O)c2cc([C@@H]3OCCc4c(Cl)cccc43)cs2)C[C@@H]1O` (single isomer, unassigned) [I-301b, [(1R,2S,4R)-4-{[5-({4-[(1R)-5-chloro-3,4-dihydro-1H-isochromen-1-yl]-2-thienyl}carbonyl)pyrimidin-4-yl]amino}-2-hydroxycyclopentyl]methyl sulfamate or [(1R,2S,4R)-4-{[5-({4-[(1S)-5-chloro-3,4-dihydro-1H-isochromen-1-yl]-2-thienyl}carbonyl)pyrimidin-4-yl]amino}-2-hydroxycyclopentyl]methyl sulfamate], the “Percent Inhibition” value under setting [1] came out at 100%. For the same compound, the IC50 under setting [2] is < 10 nM.
As to `C[C@](O)(c1csc(C(=O)c2cncnc2N[C@@H]2C[C@H](COS(N)(=O)=O)[C@@H](O)[C@H]2O)c1)c1cccc(Br)n1` (single isomer, unassigned) [I-1b, [(1R,2R,3S,4R)-4-{[5-({4-[(1S)-1-(6-bromopyridin-2-yl)-1-hydroxyethyl]-2-thienyl}carbonyl)pyrimidin-4-yl]amino}-2,3-dihydroxycyclopentyl]methyl sulfamate or [(1R,2R,3S,4R)-4-{[5-({4-[(1R)-1-(6-bromopyridin-2-yl)-1-hydroxyethyl]-2-thienyl}carbonyl)pyrimidin-4-yl]amino}-2,3-dihydroxycyclopentyl]methyl sulfamate], for the setting “Concentration 0.111 μM”, the “Percent Inhibition” value was found to be 100. Also, the half-maximal inhibitory concentration (IC50) (class symbols A/B/C) was < 10 nM.
As to `NS(=O)(=O)OC[C@H]1C[C@@H](Nc2ncncc2C(=O)c2cc(Cc3ccccc3)cs2)C[C@@H]1O` [I-88, [(1R,2S,4R)-4-({5-[(4-benzyl-2-thienyl)carbonyl]pyrimidin-4-yl}amino)-2-hydroxycyclopentyl]methyl sulfamate], the inhibition at 0.111 µM (Concentration 0.111 μM) worked out at 98%. The half-maximal inhibitory concentration (IC50) (class symbols A/B/C) is < 10 nM.
On to `Cc1ccc2c(n1)[C@H](c1cc(C(=O)c3cncnc3N[C@@H]3C[C@H](COS(N)(=O)=O)[C@@H](O)C3)sc1C)OCC2` (mixture of isomers) [I-291, [(1R,2S,4R)-2-hydroxy-4-{[5-({5-methyl-4-[(8S)-2-methyl-5,8-dihydro-6H-pyrano[3,4-b]pyridin-8-yl]-2-thienyl}carbonyl)pyrimidin-4-yl]amino}cyclopentyl]methyl sulfamate and [(1R,2S,4R)-2-hydroxy-4-{[5-({5-methyl-4-[(8R)-2-methyl-5,8-dihydro-6H-pyrano[3,4-b]pyridin-8-yl]-2-thienyl}carbonyl)pyrimidin-4-yl]amino}cyclopentyl]methyl sulfamate], for which the “Percent Inhibition” value under setting [1] is recorded as 99%. Moreover, the concentration for half-maximal inhibition (IC50) under setting [2] was < 10 nM.
